According to ChEMBL document CHEMBL1201862, “PubChem BioAssay data set” (2004):
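96-well plates; 48 h exposure; 5 concentrations. Endpoints by linear interpolation between flanking doses. Not reached: highest tested concentration assigned. GI50 = concentration required for 50% inhibition of growth.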 Active and inactive are the calls of the source. Rule as the data show it: active = GI50 up to about 1.1 µM and inactive = higher.

How the values were obtained:
Test in all cases: NCI-60 cell line screen, 48 h
SF-268 = tested on: SF-268
786-0 = tested on: 786-0
SK-MEL-28 = tested on: SK-MEL-28
MDA-MB-231 = tested on: MDA-MB-231
KM12 = tested on: KM12
PC-3 = tested on: PC-3
UACC-62 = tested on: UACC-62
IGROV-1 = tested on: IGROV-1
OVCAR-5 = tested on: OVCAR-5
ACHN = tested on: ACHN
TK-10 = tested on: TK-10
SK-MEL-2 = tested on: SK-MEL-2
COLO 205 = tested on: COLO 205
RXF 393 = tested on: RXF 393
UO-31 = tested on: UO-31
A549 = tested on: A549
HOP-62 = tested on: HOP-62
SNB-75 = tested on: SNB-75
MDA-MB-435 = tested on: MDA-MB-435
RPMI-8226 = tested on: RPMI-8226

| Structure (SMILES) | GI50 (SF-268) | GI50 (786-0) | GI50 (SK-MEL-28) | GI50 (MDA-MB-231) | GI50 (KM12) | GI50 (PC-3) | GI50 (UACC-62) | GI50 (IGROV-1) | GI50 (OVCAR-5) | GI50 (ACHN) | GI50 (TK-10) | GI50 (SK-MEL-2) | GI50 (COLO 205) | GI50 (RXF 393) | GI50 (UO-31) | GI50 (A549) | GI50 (HOP-62) | GI50 (SNB-75) | GI50 (MDA-MB-435) | GI50 (RPMI-8226) |
| --- | --- | --- | --- | --- | --- | --- | --- | --- | --- | --- | --- | --- | --- | --- | --- | --- | --- | --- | --- | --- |
| COc1cccc(/C=N/[N+](C)(C)C)c1O | > 10 µM (inactive) | > 10 µM (inactive) | > 10 µM (inactive) | > 10 µM (inactive) | > 10 µM (inactive) | > 10 µM (inactive) | > 10 µM (inactive) | > 10 µM (inactive) | > 10 µM (inactive) | > 10 µM (inactive) | > 10 µM (inactive) | > 10 µM (inactive) | > 10 µM (inactive) | > 10 µM (inactive) | > 10 µM (inactive) | > 10 µM (inactive) | > 10 µM (inactive) | > 10 µM (inactive) | > 10 µM (inactive) | > 10 µM (inactive) |
| CCOC(=O)c1cc(-c2ccn(C(C)=O)c2)c(-c2cc(C)co2)[nH]1 | > 100 µM (inactive) | > 100 µM (inactive) | > 100 µM (inactive) | > 100 µM (inactive) | > 100 µM (inactive) | > 100 µM (inactive) | > 100 µM (inactive) | > 100 µM (inactive) | > 100 µM (inactive) | > 100 µM (inactive) | > 100 µM (inactive) | > 100 µM (inactive) | > 100 µM (inactive) | > 100 µM (inactive) | > 100 µM (inactive) | > 100 µM (inactive) | > 100 µM (inactive) | > 100 µM (inactive) | > 100 µM (inactive) | > 100 µM (inactive) |
| O=[As](O)(O)c1ccc(Cc2ccc([As](=O)(O)O)cc2)cc1 | 0.434 µM (active) | 0.356 µM (active) | 1.32 µM (inactive) | 1.01 µM (active) | 1.91 µM (inactive) | 0.546 µM (active) | 1.28 µM (inactive) | 0.692 µM (active) | 2.34 µM (inactive) | 1.03 µM (active) | 0.547 µM (active) | 1.35 µM (inactive) | 0.617 µM (active) | 0.413 µM (active) | 1.24 µM (inactive) | 1.81 µM (inactive) | 1.31 µM (inactive) | 1.34 µM (inactive) | 0.577 µM (active) | 0.284 µM (active) |
| O=C(O)c1cc2ccccc2oc1=O [COUMARIN-3-CARBOXYLIC ACID] | > 100 µM (inactive) | > 100 µM (inactive) | > 100 µM (inactive) | > 100 µM (inactive) | > 100 µM (inactive) | > 100 µM (inactive) | > 100 µM (inactive) | > 100 µM (inactive) | > 100 µM (inactive) | > 100 µM (inactive) | > 100 µM (inactive) | > 100 µM (inactive) | > 100 µM (inactive) | > 100 µM (inactive) | > 100 µM (inactive) | > 100 µM (inactive) | > 100 µM (inactive) | > 100 µM (inactive) | > 100 µM (inactive) | > 100 µM (inactive) |
| Cc1c(O)ccc2c(O)c(NC(=O)c3ccc4c(c3)CCC(C)(C)O4)c(=O)oc12 [CYCLONOVOBIOCIC ACID] | > 100 µM (inactive) | > 100 µM (inactive) | > 100 µM (inactive) | > 100 µM (inactive) | > 100 µM (inactive) | > 100 µM (inactive) | 90.6 µM (inactive) | > 100 µM (inactive) | > 100 µM (inactive) | > 100 µM (inactive) | > 100 µM (inactive) | > 100 µM (inactive) | > 100 µM (inactive) | > 100 µM (inactive) | > 100 µM (inactive) | > 100 µM (inactive) | > 100 µM (inactive) | > 100 µM (inactive) | > 100 µM (inactive) | > 100 µM (inactive) |
| Cc1c(CN2CCN(C)CC2)c(CN2CCN(C)CC2)c(C)n1-c1ccc(Cl)cc1 | 44.4 µM (inactive) | 16.9 µM (inactive) | 19.5 µM (inactive) | 68.5 µM (inactive) | 34 µM (inactive) | 29.4 µM (inactive) | 16.7 µM (inactive) | 31.2 µM (inactive) | 53.7 µM (inactive) | 96.8 µM (inactive) | 17.5 µM (inactive) | 21.3 µM (inactive) | 20.4 µM (inactive) | 17.1 µM (inactive) | 26.9 µM (inactive) | 30.4 µM (inactive) | 35.4 µM (inactive) | 25.9 µM (inactive) | 25.1 µM (inactive) | 47.2 µM (inactive) |
| CCC(=O)O[C@H]1CC[C@H]2[C@@H]3CCC4=C/C(=N/NC(=O)c5cccc6c(=O)c7ccccc7[nH]c56)CC[C@]4(C)[C@H]3CC[C@]12C | > 25 µM (inactive) | 5.11 µM (inactive) | > 25 µM (inactive) | > 25 µM (inactive) | > 25 µM (inactive) | > 25 µM (inactive) | > 25 µM (inactive) | > 25 µM (inactive) | > 25 µM (inactive) | > 25 µM (inactive) | > 25 µM (inactive) | > 25 µM (inactive) | > 25 µM (inactive) | > 25 µM (inactive) | > 25 µM (inactive) | > 25 µM (inactive) | > 25 µM (inactive) | > 25 µM (inactive) | > 25 µM (inactive) | > 25 µM (inactive) |
| CC(=O)O[C@@H]1C=C(C)[C@H](CBr)O[C@@]2(C)CC[C@H](Br)C(C)(C)[C@H]12 | > 100 µM (inactive) | > 100 µM (inactive) | > 100 µM (inactive) | > 100 µM (inactive) | > 100 µM (inactive) | > 100 µM (inactive) | > 100 µM (inactive) | > 100 µM (inactive) | > 100 µM (inactive) | > 100 µM (inactive) | > 100 µM (inactive) | > 100 µM (inactive) | > 100 µM (inactive) | > 100 µM (inactive) | > 100 µM (inactive) | > 100 µM (inactive) | > 100 µM (inactive) | > 100 µM (inactive) | > 100 µM (inactive) | > 100 µM (inactive) |
| Cc1cc(S(=O)(=O)Nc2n[nH]c(-c3ccc(Cl)cn3)n2)c(S)cc1Cl | 54.7 µM (inactive) | 47.6 µM (inactive) | > 100 µM (inactive) | > 100 µM (inactive) | 36.3 µM (inactive) | > 100 µM (inactive) | 48.6 µM (inactive) | 44.4 µM (inactive) | > 100 µM (inactive) | 32.9 µM (inactive) | > 100 µM (inactive) | 47.5 µM (inactive) | > 100 µM (inactive) | 27.1 µM (inactive) | 29.5 µM (inactive) | 62.7 µM (inactive) | 76.6 µM (inactive) | 80.9 µM (inactive) | 43.1 µM (inactive) | > 100 µM (inactive) |
| CCOC(=O)CNc1c(OCc2ccccc2)c(=O)c1=O | > 100 µM (inactive) | > 100 µM (inactive) | > 100 µM (inactive) | > 100 µM (inactive) | > 100 µM (inactive) | > 100 µM (inactive) | > 100 µM (inactive) | > 100 µM (inactive) | > 100 µM (inactive) | > 100 µM (inactive) | > 100 µM (inactive) | > 100 µM (inactive) | > 100 µM (inactive) | > 100 µM (inactive) | > 100 µM (inactive) | > 100 µM (inactive) | > 100 µM (inactive) | > 100 µM (inactive) | > 100 µM (inactive) | > 100 µM (inactive) |
